In patent US11918551B2, “Methods of treating seizure disorders and Prader-Willi syndrome” (Ovid Therapeutics, Inc., priority 2017, dated 2024):

Assay: plasma pharmacokinetics (elimination half-life, dose proportionality of Cmax and AUC)
Conditions: in the dose range 5 mg-500 mg
Excerpt: “PK” refers to the pharmacokinetic profile. Cmax is defined as the highest plasma drug concentration estimated during an experiment (ng/ml). Tmax is defined as the time when Cmax is estimated (min). AUC0-∞ is the total area under the plasma drug concentration-time curve, from drug administration until the drug is eliminated (ng·hr/ml or μg·hr/ml). The area under the curve is governed by clearance. Clearance is defined as the volume of blood or plasma that is totally cleared of its content of drug per unit time (ml/min).

- AUCs dose proportionality: greater than proportional increase
SMILES: N[C@H]1C[C@@H](C(=O)O)CC1=C(F)F
